This note sets out measurements from US7045145B1, “Transdermal contraceptive delivery system and process” (Agile Therapeutics, Inc., priority 1999, dated 2006).

The nature of the data set: clinical. As to conditions: female, human, in vivo.

Description: Serum level of levonorgestrel (LNG), ethinyl estradiol (EE) as well as luteinizing hormone (LH), progesterone (P) and estradiol (E2) were analyzed by radio-immunassay methods.
The total duration of study for each subject participating in this study is 5 months. It consists of one base-line period followed by three treatment periods and one recovery period. Each period is one menstrual cycle of the person subjects.
Subjects attending this 5 month-long study were randomly divided and sequentially admitted into three study groups. Group A, B and C subjects received one piece of 7.5 cm^2, 10.0 cm^2 and 12.5 cm^2 TCDS patch weekly, respectively, for three consecutive weeks I each of the three treatment periods. During the baseline and recovery periods, all the subjects received only the placebo patch of the corresponding size for three consecutive weeks. During the fourth week of each study period, no patch was worn by the subjects in any treatment groups.
According to the blood sampling schedule, a total of 57 blood samples (about 10 ml per sample) were taken from each subject during the 5-month study. During the three treatment cycles, 15 samples were taken through out the 21 days of patch wearing period. At the end of the third treatment cycle, 5 additional blood samples were taken during the 24 hours post patch removal which allows the elimination pharmacokinetics of drugs to be studied. […]

Take `C#C[C@]1(O)CC[C@H]2[C@@H]3CCC4=CC(=O)CC[C@@H]4[C@H]3CC[C@@]21CC` [levonorgestrel]: the Cmax (in general, the maximum level reached in the sampled fluid or tissue) is over 2 ng/mL and the “serum levels compared with the level considered necessary for effective contraception in women” value is reported as “exceeded the level (200–600 pg/ml)”.
